Data: patent US12220465B2, “Compositions and methods for targeted treatment and imaging of cancer or tumors” (Washington University, priority 2018, dated 2025)
pIC50: −log10 of the molar value.

Experiments:
EPCs [1] = experiment: Boyden chamber migration of agent-treated EPCs towards MM-conditioned media; assay type: cell-based; conditions: for effect on migration of EPCs to tumor: increasing doses, towards MM-conditioned media
Procedure: (§1) Anticancer agents have preferential cytotoxic effects on cancer cells compared to non-malignant cells (such as EPCs). Therefore we tested the effect of BTZ (anti-cancer drug) on the survival of malignant MM cells (MM1s and H929) and on EPCs, in which cells were treated with increasing concentrations of Bortezomib, and the killing effect was evaluated after 48 hours using MTT assay (FIGS. 8A and B). Also EPCs were treated with and without high-dose of BTZ (50 nM) and we measured the in vitro migration of the EPCs towards MM-conditioned media, using a Boyden chamber migration assay, and the number of migrating EPCs was analyzed by flow cytometry (FIG. 8C).
(§2) Prodrugs such as TC and BPA are inert agents that are not supposed to have effect by them selves on cancer or normal cell survival, but when activated using positron emission and neutrons, respectively, these agents become active drugs and kill the cell that they reside in and adjacent cells next to it. We tested the effect of TC and BPA (prodrugs) on the survival of EPCs, in which cells were treated with increasing concentrations of these, and the killing effect was evaluated after 48 hours using MTT assay (FIGS. 9A and 10A). And to confirm the loading of EPCs with TC and BPA, we treated the EPCs with increasing doses of TC and BPA, digested the cells with nitric acid, and used ICP-MS to detect the level of Titanium and boron in the EPCs, respectively (FIGS. 9B and 10B). Also EPCs were treated with and without increasing doses of TC and BPA and we measured the in vitro migration of the EPCs towards MM-conditioned media, using a Boyden chamber migration assay, and the number of migrating EPCs was analyzed by flow cytometry (FIGS. 9C and 10C).
(§3) These agents have no cytotoxicity effect, to confirm that we tested the effect of LS-542, (as a model of an imaging agent) on survival of EPCs, in which cells were treated with increasing concentrations of these, and the killing effect was evaluated after 48 hours using MTT assay (FIG. 11A). And to confirm the loading of EPCs with LS-542, we treated the EPCs with increasing doses of LS-542, and the amount of labeling was measure by the mean-flurescence intensity of the dye by flow cytometry (FIG. 11B). Also EPCs were treated with and without increasing doses of LS-542 and we measured the in vitro migration of the EPCs towards MM-conditioned media, using a Boyden chamber migration assay, and the number of migrating EPCs was analyzed by flow cytometry (FIG. 11C).

EPCs [2] = experiment: MTT survival assay of EPCs treated with agent; assay type: cell-based; conditions: 48 hours; for effect on survival of EPCs: increasing concentrations
Procedure: as §1
as §2, with “And to confirm the loading of EPCs with TC and BPA, we treated the EPCs with increasing doses of TC and BPA, digested the cells with nitric acid, and used ICP-MS to detect the level of Titanium and boron in the EPCs, respectively (FIGS. 9B and 10B).” left out
as §3, with “And to confirm the loading of EPCs with LS-542, we treated the EPCs with increasing doses of LS-542, and the amount of labeling was measure by the mean-flurescence intensity of the dye by flow cytometry (FIG. 11B).” left out

[3] = system: malignant MM cells (MM1s and H929); experiment: MTT survival assay of malignant MM cells treated with Bortezomib; assay type: cell-based; conditions: Homo sapiens, 48 hours, read-out: IC50, killing of myeloma cells
Procedure: as §1

EPCs [4] = conditions: calcein-UV and PI, flow cytometry
Procedure: The effect of Tc on the cell vitality/viability by staining the cells with viability dye (calcein-UV) and propidium iodide (PI) and analyzing by flow cytometry was tested.

| Compound | effect on migration of EPCs to tumor (EPCs [1]) | effect on survival of EPCs (EPCs [2]) | pIC50 [3] | effect of loading on migration of EPCs towards cancer cells (EPCs [1]; BTZ 50 nM for 2 hrs, MM-conditioned media) | BTZ concentration up to which EPCs are not sensitive (survival) (EPCs [2]) | concentration up to which Tc is not toxic to EPCs (EPCs [4]) | effect on migration of EPCs to conditioned MM media (EPCs [1]; same concentration range, up to 150 μM) |
| --- | --- | --- | --- | --- | --- | --- | --- |
| N[C@@H](Cc1ccc(B(O)O)cc1)C(=O)O [BPA, 4-Borono-L-phenylalanine] | no effect | no effect on the survival | – | – | – | – | – |
| CC(C)C[C@H](NC(=O)[C@H](Cc1ccccc1)NC(=O)c1cnccn1)B(O)O [BTZ, Bortezomib] | – | – | 8.30 | did not affect the migration of EPCs | up to 50 nM | – | – |
| [Cl-].[Cl-].[Ti+4].c1cc[cH-]c1.c1cc[cH-]c1 [Titanocene] | no effect | no effect on the survival | – | – | – | up to 150 μM | did not affect the migration of EPCs |
